pIC50: −log10 of the molar value.
Key:
[1] = target: T1, Serine/threonine-protein kinase Sgk1 (Homo sapiens, UniProt O00141); test: Inhibition of SGK
T1 sequence (O00141 whole entry): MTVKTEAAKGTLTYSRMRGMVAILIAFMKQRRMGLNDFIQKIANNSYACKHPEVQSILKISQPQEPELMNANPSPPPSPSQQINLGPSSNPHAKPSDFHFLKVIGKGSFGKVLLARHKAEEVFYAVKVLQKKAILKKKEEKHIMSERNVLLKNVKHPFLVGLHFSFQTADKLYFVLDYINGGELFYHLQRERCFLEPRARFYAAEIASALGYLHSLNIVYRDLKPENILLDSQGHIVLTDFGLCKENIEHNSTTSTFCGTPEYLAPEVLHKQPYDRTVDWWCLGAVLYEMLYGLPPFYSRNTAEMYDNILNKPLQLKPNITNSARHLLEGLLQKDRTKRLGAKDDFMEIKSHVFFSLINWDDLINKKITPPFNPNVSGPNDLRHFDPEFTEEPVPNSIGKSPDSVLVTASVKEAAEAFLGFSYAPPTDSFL

[2] = target: Mitogen-activated protein kinase 1 (Homo sapiens, UniProt P28482); test: Inhibition of MAPK
Mitogen-activated protein kinase 1, sequence (P28482 whole entry): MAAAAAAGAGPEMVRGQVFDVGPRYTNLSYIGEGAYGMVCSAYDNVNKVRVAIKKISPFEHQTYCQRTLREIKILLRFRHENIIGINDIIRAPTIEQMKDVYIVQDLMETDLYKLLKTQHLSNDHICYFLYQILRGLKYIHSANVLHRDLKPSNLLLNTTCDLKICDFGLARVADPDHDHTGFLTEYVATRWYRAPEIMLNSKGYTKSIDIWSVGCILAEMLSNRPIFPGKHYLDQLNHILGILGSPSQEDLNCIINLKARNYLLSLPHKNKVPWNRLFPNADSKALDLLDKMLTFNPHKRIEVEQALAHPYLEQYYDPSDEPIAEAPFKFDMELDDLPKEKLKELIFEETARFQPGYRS

[3] = target: c-Jun N-terminal kinase, JNK (Homo sapiens, UniProt P45983+P53779+P45984); test: Inhibition of JNK; assay type: protein assay
[4] = target: cAMP-dependent protein kinase (PKA) (Homo sapiens, UniProt P22694+P17612+P22612); test: Inhibition of PKA; assay type: protein assay
[5] = target: Proto-oncogene tyrosine-protein kinase Src (Homo sapiens, UniProt P12931); test: Inhibition of Src
Proto-oncogene tyrosine-protein kinase Src, sequence (P12931 2-536 limits assumed): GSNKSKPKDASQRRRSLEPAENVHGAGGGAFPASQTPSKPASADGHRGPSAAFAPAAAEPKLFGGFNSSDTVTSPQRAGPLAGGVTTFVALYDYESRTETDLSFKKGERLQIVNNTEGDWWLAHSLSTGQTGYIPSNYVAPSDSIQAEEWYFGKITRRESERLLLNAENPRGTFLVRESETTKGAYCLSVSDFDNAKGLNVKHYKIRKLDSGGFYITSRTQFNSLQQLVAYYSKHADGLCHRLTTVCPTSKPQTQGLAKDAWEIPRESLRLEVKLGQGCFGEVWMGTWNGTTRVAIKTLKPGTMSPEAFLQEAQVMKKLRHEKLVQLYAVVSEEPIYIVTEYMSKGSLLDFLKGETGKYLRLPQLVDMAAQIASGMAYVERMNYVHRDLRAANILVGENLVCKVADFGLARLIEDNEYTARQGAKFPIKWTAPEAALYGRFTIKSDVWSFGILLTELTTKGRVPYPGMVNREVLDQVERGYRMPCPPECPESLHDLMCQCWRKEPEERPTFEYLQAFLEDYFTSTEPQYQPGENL

[6] = target: Glycogen synthase kinase-3 beta (Homo sapiens, UniProt P49841); test: Inhibition of GSK3-beta
Glycogen synthase kinase-3 beta, sequence (P49841 whole entry): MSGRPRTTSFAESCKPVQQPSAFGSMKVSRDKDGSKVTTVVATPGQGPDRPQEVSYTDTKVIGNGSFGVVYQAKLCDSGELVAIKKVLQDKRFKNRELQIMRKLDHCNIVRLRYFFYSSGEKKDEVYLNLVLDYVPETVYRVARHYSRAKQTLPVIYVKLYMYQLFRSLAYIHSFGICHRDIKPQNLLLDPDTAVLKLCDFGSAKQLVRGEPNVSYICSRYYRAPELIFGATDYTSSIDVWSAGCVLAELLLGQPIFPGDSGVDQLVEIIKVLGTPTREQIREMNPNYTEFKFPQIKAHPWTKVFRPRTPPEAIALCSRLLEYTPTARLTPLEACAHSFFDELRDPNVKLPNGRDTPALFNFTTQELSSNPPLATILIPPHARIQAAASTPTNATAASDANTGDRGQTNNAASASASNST

[7] = target: AMP-activated protein kinase, AMPK; test: Inhibition of AMPK; assay type: protein-complex assay
[8] = target: T2, Serine/threonine-protein kinase Chk1 (Homo sapiens, UniProt O14757); test: Inhibition of CHK1
T2 sequence (O14757 whole entry): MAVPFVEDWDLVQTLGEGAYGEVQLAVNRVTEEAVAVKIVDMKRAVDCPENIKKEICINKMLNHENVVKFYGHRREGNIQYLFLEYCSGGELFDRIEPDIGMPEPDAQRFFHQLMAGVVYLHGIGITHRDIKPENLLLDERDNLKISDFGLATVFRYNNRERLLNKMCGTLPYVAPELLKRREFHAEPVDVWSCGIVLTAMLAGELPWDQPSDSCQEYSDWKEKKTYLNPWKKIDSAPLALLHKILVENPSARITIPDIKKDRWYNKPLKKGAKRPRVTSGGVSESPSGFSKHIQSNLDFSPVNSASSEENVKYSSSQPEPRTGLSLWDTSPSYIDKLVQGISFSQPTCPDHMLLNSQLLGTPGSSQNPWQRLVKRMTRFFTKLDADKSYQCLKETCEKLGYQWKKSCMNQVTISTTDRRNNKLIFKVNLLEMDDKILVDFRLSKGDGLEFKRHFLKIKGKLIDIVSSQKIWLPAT

[9] = target: Rho-associated protein kinase 2 (Homo sapiens, UniProt O75116); test: Inhibition of ROCK2
Rho-associated protein kinase 2, sequence (O75116 whole entry): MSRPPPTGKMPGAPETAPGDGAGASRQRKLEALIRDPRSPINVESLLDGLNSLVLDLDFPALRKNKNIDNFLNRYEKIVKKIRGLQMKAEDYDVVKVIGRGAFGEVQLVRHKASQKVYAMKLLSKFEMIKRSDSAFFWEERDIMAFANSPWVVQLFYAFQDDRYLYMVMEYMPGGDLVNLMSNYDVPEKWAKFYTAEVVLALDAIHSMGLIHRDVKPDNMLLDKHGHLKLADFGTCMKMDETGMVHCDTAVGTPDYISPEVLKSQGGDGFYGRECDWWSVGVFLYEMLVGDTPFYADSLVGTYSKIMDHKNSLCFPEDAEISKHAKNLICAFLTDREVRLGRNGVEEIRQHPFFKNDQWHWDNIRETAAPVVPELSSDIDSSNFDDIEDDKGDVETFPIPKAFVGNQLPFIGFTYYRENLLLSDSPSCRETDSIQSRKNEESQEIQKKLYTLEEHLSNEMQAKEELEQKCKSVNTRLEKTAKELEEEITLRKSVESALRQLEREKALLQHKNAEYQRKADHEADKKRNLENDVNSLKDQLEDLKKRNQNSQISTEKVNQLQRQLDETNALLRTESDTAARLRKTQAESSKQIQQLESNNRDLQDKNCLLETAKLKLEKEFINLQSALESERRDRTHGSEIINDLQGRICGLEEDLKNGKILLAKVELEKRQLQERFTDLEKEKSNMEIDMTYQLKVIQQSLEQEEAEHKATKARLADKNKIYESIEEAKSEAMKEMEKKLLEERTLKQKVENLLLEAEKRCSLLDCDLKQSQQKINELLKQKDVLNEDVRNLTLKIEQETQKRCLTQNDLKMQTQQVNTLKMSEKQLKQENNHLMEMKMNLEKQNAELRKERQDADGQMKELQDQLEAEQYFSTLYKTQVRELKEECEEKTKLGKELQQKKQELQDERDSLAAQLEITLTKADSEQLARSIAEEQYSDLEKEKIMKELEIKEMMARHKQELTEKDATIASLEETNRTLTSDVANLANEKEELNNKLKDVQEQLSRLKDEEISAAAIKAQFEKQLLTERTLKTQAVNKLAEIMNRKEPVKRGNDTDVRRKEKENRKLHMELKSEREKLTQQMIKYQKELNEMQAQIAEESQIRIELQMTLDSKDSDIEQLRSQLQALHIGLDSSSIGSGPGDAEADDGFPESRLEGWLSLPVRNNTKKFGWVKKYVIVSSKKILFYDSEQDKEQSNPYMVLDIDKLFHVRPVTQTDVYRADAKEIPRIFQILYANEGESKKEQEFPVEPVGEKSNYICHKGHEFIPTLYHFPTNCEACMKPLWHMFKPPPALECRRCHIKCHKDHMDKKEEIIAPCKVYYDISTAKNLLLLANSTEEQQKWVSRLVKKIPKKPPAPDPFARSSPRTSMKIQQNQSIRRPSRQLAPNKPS

[10] = target: Vascular endothelial growth factor receptor 2 (Homo sapiens, UniProt P35968)
Vascular endothelial growth factor receptor 2, sequence (P35968 whole entry): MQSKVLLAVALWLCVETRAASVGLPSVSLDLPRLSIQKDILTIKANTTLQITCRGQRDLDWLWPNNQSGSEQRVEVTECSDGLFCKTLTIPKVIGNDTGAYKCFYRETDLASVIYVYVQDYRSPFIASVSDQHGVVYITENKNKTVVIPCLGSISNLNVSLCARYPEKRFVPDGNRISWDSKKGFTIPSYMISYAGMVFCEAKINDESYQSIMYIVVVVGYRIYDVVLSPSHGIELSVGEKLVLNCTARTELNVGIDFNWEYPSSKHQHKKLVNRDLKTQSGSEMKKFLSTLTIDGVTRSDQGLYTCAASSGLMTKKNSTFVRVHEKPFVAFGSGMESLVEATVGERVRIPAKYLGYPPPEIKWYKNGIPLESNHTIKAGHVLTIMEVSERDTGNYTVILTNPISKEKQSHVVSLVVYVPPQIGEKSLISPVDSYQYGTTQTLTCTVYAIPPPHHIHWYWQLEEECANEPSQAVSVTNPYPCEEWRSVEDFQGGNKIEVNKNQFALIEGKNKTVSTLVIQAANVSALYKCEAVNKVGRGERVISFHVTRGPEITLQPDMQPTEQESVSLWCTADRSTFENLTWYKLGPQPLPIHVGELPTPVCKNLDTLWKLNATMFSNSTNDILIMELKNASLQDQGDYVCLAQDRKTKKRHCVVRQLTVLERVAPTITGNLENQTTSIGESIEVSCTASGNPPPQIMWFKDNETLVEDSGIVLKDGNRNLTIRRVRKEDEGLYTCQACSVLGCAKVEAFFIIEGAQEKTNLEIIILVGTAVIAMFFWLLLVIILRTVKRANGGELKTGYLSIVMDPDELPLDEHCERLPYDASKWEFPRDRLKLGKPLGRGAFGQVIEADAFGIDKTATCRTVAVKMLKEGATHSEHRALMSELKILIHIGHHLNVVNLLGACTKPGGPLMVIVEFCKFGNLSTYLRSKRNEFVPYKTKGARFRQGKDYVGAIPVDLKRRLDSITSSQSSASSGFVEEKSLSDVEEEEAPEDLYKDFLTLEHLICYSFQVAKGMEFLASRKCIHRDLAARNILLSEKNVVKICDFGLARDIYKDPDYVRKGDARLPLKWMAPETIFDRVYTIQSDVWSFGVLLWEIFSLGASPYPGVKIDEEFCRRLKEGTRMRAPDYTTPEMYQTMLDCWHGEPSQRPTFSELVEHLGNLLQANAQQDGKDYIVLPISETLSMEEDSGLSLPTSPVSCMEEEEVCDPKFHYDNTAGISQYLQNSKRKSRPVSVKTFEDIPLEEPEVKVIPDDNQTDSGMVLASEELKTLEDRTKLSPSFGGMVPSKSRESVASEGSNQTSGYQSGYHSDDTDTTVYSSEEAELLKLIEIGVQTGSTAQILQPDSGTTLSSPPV

MAP kinase p38 = MAP kinase p38 (Homo sapiens, UniProt O15264+Q15759+Q16539+P53778)
[11] = target: Tyrosine-protein kinase Lck (Homo sapiens, UniProt P06239)
Tyrosine-protein kinase Lck, sequence (P06239 whole entry): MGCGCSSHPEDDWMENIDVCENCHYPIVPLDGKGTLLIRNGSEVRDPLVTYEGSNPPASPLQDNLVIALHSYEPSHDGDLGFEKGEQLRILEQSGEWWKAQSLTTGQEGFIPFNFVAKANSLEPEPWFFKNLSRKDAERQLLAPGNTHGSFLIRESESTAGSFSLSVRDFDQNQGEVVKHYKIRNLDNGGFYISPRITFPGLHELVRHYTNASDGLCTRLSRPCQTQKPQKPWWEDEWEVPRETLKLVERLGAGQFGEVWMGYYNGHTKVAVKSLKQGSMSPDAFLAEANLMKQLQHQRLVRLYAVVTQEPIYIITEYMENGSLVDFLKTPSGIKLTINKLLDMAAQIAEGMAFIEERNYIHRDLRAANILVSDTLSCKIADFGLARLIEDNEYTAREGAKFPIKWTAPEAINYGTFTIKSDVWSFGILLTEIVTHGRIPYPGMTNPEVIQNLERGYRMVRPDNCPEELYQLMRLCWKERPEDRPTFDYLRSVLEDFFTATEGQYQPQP

Compound | pIC50 [1] | pIC50 [2] | IC50 [3] | IC50 [4] | pIC50 [5] | pIC50 [6] | pIC50 [7] | pIC50 [8] | pIC50 [9] | pIC50 [10] | IC50 (MAP kinase p38) | pIC50 [11]
COc1cc2ncnc(Nc3cccc(Cl)c3F)c2cc1CN1CC[C@H](C(N)=O)C1 | < 5.00 | < 5.00 | > 10 µM | – | < 5.00 | < 5.00 | < 5.00 | < 5.00 | < 5.00 | < 5.00 | – | < 5.00
COc1cc2ncnc(Nc3cccc(Cl)c3F)c2cc1CN1CCCC1 | < 5.00 | < 5.00 | > 10 µM | > 10 µM | < 5.00 | < 5.00 | < 5.00 | < 5.00 | < 5.00 | < 5.00 | – | < 5.00
COc1cc2ncnc(Nc3cccc(Cl)c3F)c2cc1CN1CCOCC1C(N)=O (stereo not given) | < 5.00 | < 5.00 | > 10 µM | > 10 µM | < 5.00 | < 5.00 | < 5.00 | < 5.00 | < 5.00 | < 5.00 | – | < 5.00
COc1cc2ncnc(Nc3cccc(Cl)c3F)c2cc1CN1CCC[C@@H]1C(=O)N(C)C | < 5.00 | < 5.00 | > 10 µM | > 10 µM | < 5.00 | < 5.00 | < 5.00 | < 5.00 | < 5.00 | < 5.00 | – | –
COc1cc2ncnc(Nc3cccc(Cl)c3F)c2cc1CN(CCN(C)C)[C@@H](C)C(N)=O | < 5.00 | < 5.00 | > 10 µM | > 10 µM | < 5.00 | < 5.00 | < 5.00 | < 5.00 | < 5.00 | < 5.00 | – | < 5.00
COc1cc2ncnc(Nc3cccc(Cl)c3F)c2cc1CN1C[C@H](OC)C[C@@H]1C(N)=O | < 5.00 | < 5.00 | > 10 µM | – | < 5.00 | < 5.00 | < 5.00 | < 5.00 | < 5.00 | < 5.00 | – | –
COc1cc2ncnc(Nc3cccc(Cl)c3F)c2cc1CN1CC(C(N)=O)C1 | < 5.00 | < 5.00 | > 10 µM | > 10 µM | < 5.00 | < 5.00 | < 5.00 | < 5.00 | < 5.00 | < 5.00 | – | –

Continued, values first:

pIC50 [1] | pIC50 [2] | IC50 [3] | IC50 [4] | pIC50 [5] | pIC50 [6] | pIC50 [7] | pIC50 [8] | pIC50 [9] | pIC50 [10] | IC50 (MAP kinase p38) | pIC50 [11] | Compound
< 5.00 | < 5.00 | > 10 µM | > 10 µM | < 5.00 | < 5.00 | < 5.00 | < 5.00 | < 5.00 | < 5.00 | > 10 µM | – | COC[C@@H](C(N)=O)N(C)Cc1cc2c(Nc3cccc(Cl)c3F)ncnc2cc1OC
< 5.00 | < 5.00 | > 10 µM | > 10 µM | < 5.00 | < 5.00 | < 5.00 | < 5.00 | < 5.00 | < 5.00 | – | < 5.00 | COCCN(Cc1cc2c(Nc3cccc(Cl)c3F)ncnc2cc1OC)[C@@H](C)C(N)=O
< 5.00 | < 5.00 | > 10 µM | > 10 µM | < 5.00 | < 5.00 | < 5.00 | < 5.00 | < 5.00 | < 5.00 | – | – | COc1cc2ncnc(Nc3cccc(Cl)c3F)c2cc1CN(C)[C@H](C)C(=O)N(C)C
< 5.00 | < 5.00 | > 10 µM | > 10 µM | < 5.00 | < 5.00 | < 5.00 | < 5.00 | < 5.00 | < 5.00 | > 10 µM | – | COc1cc2ncnc(Nc3cccc(Cl)c3F)c2cc1CN(C)[C@@H](CO)C(N)=O
